Test results reported in US20250129074A1, “CHIMERIC COMPOUND FOR TARGETED DEGRADATION OF ANDROGEN RECEPTOR PROTEIN, PREPARATION METHOD THEREFOR, AND MEDICAL USE THEREOF” (Jiangsu Hengrui Pharmaceuticals Co., Ltd., priority 2021, published 2025).

Columns and labels:
LNCaP cells = assay: Inhibition of LNCaP proliferation (CellTiter-Glo); format: cell-based; settings: Homo sapiens, 144 h, 0.1 nM R1881, six days; for Emax: read-out: Max (maximum proliferation inhibition rate)
Experimental: The plate was incubated in a 37° C., 5% CO2 cell incubator for three days. […] A blank control cell well containing 0.5% DMSO and a cell-free vehicle control well were set up. The plate was incubated in a 37° C., 5% CO2 cell incubator for six days.

androgen receptor (AR) = target: T1, androgen receptor (AR) (Homo sapiens, UniProt P10275, T878A); assay: Degradation activity on androgen receptor in LNCaP cells (AR ELISA); format: cell-based; settings: 0.1 nM R1881, 24 hours; for DC50: read-out: LNCaP DC50; for Dmax: read-out: Max (maximum AR degradation rate)
T1 construct: host or cells: LNCaP human prostate cancer cells
T1 sequence (P10275 1-920 T878A): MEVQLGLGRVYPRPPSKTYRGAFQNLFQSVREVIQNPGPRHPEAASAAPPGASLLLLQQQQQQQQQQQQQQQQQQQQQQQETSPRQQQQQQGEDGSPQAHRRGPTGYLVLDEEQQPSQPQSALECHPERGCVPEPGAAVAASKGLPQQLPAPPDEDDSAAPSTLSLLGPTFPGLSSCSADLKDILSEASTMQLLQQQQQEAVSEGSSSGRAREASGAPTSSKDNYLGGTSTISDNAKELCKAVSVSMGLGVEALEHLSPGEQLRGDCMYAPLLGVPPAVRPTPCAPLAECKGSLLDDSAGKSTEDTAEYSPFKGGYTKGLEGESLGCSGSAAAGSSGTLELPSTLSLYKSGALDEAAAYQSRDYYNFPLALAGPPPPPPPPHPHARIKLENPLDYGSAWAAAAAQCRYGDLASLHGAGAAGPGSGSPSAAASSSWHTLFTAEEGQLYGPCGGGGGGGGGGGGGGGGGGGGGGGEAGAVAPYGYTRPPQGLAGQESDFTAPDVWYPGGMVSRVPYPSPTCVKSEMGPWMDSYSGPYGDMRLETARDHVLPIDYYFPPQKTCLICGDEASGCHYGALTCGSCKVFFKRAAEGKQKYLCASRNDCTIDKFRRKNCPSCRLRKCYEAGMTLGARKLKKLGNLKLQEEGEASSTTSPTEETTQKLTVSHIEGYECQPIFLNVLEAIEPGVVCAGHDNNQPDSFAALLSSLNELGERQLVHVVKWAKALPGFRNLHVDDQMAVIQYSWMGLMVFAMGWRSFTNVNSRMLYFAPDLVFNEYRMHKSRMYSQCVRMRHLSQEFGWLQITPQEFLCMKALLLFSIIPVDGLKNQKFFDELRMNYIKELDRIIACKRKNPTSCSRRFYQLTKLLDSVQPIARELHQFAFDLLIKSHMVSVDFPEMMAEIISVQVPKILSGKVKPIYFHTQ
Experimental: The plate was incubated in a 37° C., 5% CO2 cell incubator for three days. […] A blank control cell well containing 0.5% DMSO was set up. The plate was incubated in a 37° C., 5% CO2 cell incubator for 24 hours. […] The lysate was well mixed by pipetting up and down and then centrifuged at 4000 rpm at 4° C. for 10 minutes. […] The plate was sealed and incubated in a 37° C. incubator for 1 hour. […] The plate was sealed and then incubated in a 37° C. incubator for 30 minutes.

## C[C@H]1CC2(CCN(c3ccc(C(=O)N4CC(CN5CCC(c6cccc(NC7CCC(=O)NC7=O)c6)CC5)C4)nn3)CC2)CN1c1ccc(C#N)c(Cl)c1 (stereo partly drawn) [Example 21, 2-Chloro-4-((3S)-8-(6-(3-((4-(3-((2,6-dioxopiperidin-3-yl)amino)phenyl)piperidin-1-yl)methyl)azetidine-1-carbonyl)pyridazin-3-yl)-3-methyl-2,8-diazaspiro[4.5]decan-2-yl)benzonitrile]
LNCaP cells
  IC50: 16 nM
  Emax: 60%
Androgen receptor (AR)
  DC50: 0.5 nM
  Dmax: 94%

## C[C@H]1CC2(CCN(c3ccc(C(=O)N4CCC(CN5CCN(c6cc(NC7CCC(=O)NC7=O)ccn6)CC5)CC4)cc3)CC2)CN1c1ccc(C#N)c(Cl)c1 (stereo partly drawn) [Example 24, 2-Chloro-4-((3S)-8-(4-(4-((4-(4-((2,6-dioxopiperidin-3-yl)amino)pyridin-2-yl)piperazin-1-yl)methyl)piperidine-1-carbonyl)phenyl)-3-methyl-2,8-diazaspiro[4.5]decan-2-yl)benzonitrile]
LNCaP cells
  IC50: 659 nM
  Emax: 54%
Androgen receptor (AR)
  DC50: 9.1 nM
  Dmax: 94%

## C[C@H]1CC2(CCN(c3ccc(C(=O)N4CCC(CN5CCN(c6ccc(NC7CCC(=O)NC7=O)cc6)CC5)CC4)cc3)CC2)CN1c1ccc(C#N)c(Cl)c1 (stereo partly drawn) [Example 25, 2-Chloro-4-((3S)-8-(4-(4-((4-(4-((2,6-dioxopiperidin-3-yl)amino)phenyl)piperazin-1-yl)methyl)piperidine-1-carbonyl)phenyl)-3-methyl-2,8-diazaspiro[4.5]decan-2-yl)benzonitrile]
LNCaP cells
  IC50: 24 nM
  Emax: 60%
Androgen receptor (AR)
  DC50: 1.8 nM
  Dmax: 96%

## C[C@H]1CC2(CCN(c3ccc(C(=O)N4CCC(CN5CCC(c6ccc(NC7CCC(=O)NC7=O)cc6)CC5)CC4)cc3)CC2)CN1c1ccc(C#N)c(Cl)c1 (stereo partly drawn) [Example 26, 2-Chloro-4-((3S)-8-(4-(4-((4-(4-((2,6-dioxopiperidin-3-yl)amino)phenyl)piperidin-1-yl)methyl)piperidine-1-carbonyl)phenyl)-3-methyl-2,8-diazaspiro[4.5]decan-2-yl)benzonitrile]
LNCaP cells
  IC50: 7.8 nM
  Emax: 63%
Androgen receptor (AR)
  DC50: 2.5 nM
  Dmax: 94%

## C[C@H]1CC2(CCN(c3ccc(C(=O)N4CCC(CN5CCC(c6ccc(NC7CCC(=O)NC7=O)cc6F)CC5)CC4)cc3)CC2)CN1c1ccc(C#N)c(Cl)c1 (stereo partly drawn) [Example 27, 2-Chloro-4-((3S)-8-(4-(4-((4-(4-((2,6-dioxopiperidin-3-yl)amino)-2-fluorophenyl)piperidin-1-yl)methyl)piperidine-1-carbonyl)phenyl)-3-methyl-2,8-diazaspiro[4.5]decan-2-yl)benzonitrile]
LNCaP cells
  IC50: 7.9 nM
  Emax: 64%
Androgen receptor (AR)
  DC50: 7.7 nM
  Dmax: 96%

## C[C@H]1CC2(CCN(c3ccc(C(=O)N4CCC5(CCC(N6CCN(c7ccc(N8CCC(=O)NC8=O)cc7)CC6)CC5)CC4)cc3)CC2)CN1c1ccc(C#N)c(Cl)c1 [Example 29, (S)-2-Chloro-4-(8-(4-(9-(4-(4-(2,4-dioxotetrahydropyrimidin-1(2H)-yl)phenyl)piperazin-1-yl)-3-azaspiro[5.5]undecane-3-carbonyl)phenyl)-3-methyl-2,8-diazaspiro[4.5]decan-2-yl)benzonitrile]
LNCaP cells
  IC50: 81 nM
  Emax: 45%
Androgen receptor (AR)
  DC50: 12 nM
  Dmax: 93%

## C[C@H]1CC2(CCN(c3ccc(C(=O)N4CCC5(CC4)CC(N4CCN(c6ccc(N7CCC(=O)NC7=O)cc6)CC4)C5)cc3F)CC2)CN1c1ccc(C#N)c(Cl)c1 [Example 30, (S)-2-Chloro-4-(8-(4-(2-(4-(4-(2,4-dioxotetrahydropyrimidin-1(2H)-yl)phenyl)piperazin-1-yl)-7-azaspiro[3.5]nonane-7-carbonyl)-2-fluorophenyl)-3-methyl-2,8-diazaspiro[4.5]decan-2-yl)benzonitrile]
LNCaP cells
  IC50: 7.2 nM
  Emax: 52%
Androgen receptor (AR)
  DC50: 4.2 nM
  Dmax: 96%

## C[C@H]1CC2(CCN(c3ccc(C(=O)N4CCC5(CC4)CC(N4CCN(c6ccc(N7CCC(=O)NC7=O)cc6)CC4)C5)c(F)c3)CC2)CN1c1ccc(C#N)c(Cl)c1 [Example 31, (S)-2-Chloro-4-(8-(4-(2-(4-(4-(2,4-dioxotetrahydropyrimidin-1(2H)-yl)phenyl)piperazin-1-yl)-7-azaspiro[3.5]nonane-7-carbonyl)-3-fluorophenyl)-3-methyl-2,8-diazaspiro[4.5]decan-2-yl)benzonitrile]
LNCaP cells
  IC50: 12 nM
  Emax: 57%
Androgen receptor (AR)
  DC50: 8.7 nM
  Dmax: 94%

## C[C@H]1CC2(CCN(c3ccc(C(=O)N4CCC5(CC4)CC(N4CCN(c6ccc(N7CCC(=O)NC7=O)cc6)CC4)C5)nc3)CC2)CN1c1ccc(C#N)c(Cl)c1 [Example 32, (S)-2-Chloro-4-(8-(6-(2-(4-(4-(2,4-dioxotetrahydropyrimidin-1(2H)-yl)phenyl)piperazin-1-yl)-7-azaspiro[3.5]nonane-7-carbonyl)pyridin-3-yl)-3-methyl-2,8-diazaspiro[4.5]decan-2-yl)benzonitrile]
LNCaP cells
  IC50: 3.1 nM
  Emax: 63%
Androgen receptor (AR)
  DC50: 1 nM
  Dmax: 95%

## C[C@H]1CC2(CCN(c3ccc(C(=O)N4CCC5(CC4)CC(N4CCN(c6ccc(N7CCC(=O)NC7=O)cc6)CC4)C5)cn3)CC2)CN1c1ccc(C#N)c(Cl)c1 [Example 33, (S)-2-Chloro-4-(8-(5-(2-(4-(4-(2,4-dioxotetrahydropyrimidin-1(2H)-yl)phenyl)piperazin-1-yl)-7-azaspiro[3.5]nonane-7-carbonyl)pyridin-2-yl)-3-methyl-2,8-diazaspiro[4.5]decan-2-yl]benzonitrile]
LNCaP cells
  IC50: 3.5 nM
  Emax: 58%
Androgen receptor (AR)
  DC50: 2.5 nM
  Dmax: 95%

## C[C@H]1CC2(CCN(c3ccc(C(=O)N4CCC5(CC4)CC(N4CCN(c6ccc(C7CCC(=O)NC7=O)cc6)CC4)C5)cc3)CC2)CN1c1ccc(C#N)c(Cl)c1 (stereo partly drawn) [Example 34, 2-Chloro-4-((3S)-8-(4-(2-(4-(4-(2,6-dioxopiperidin-3-yl)phenyl)piperazin-1-yl)-7-azaspiro[3.5]nonane-7-carbonyl)phenyl)-3-methyl-2,8-diazaspiro[4.5]decan-2-yl)benzonitrile]
LNCaP cells
  IC50: 12 nM
  Emax: 60%
Androgen receptor (AR)
  DC50: 5 nM
  Dmax: 96%

## C[C@H]1CC2(CCN(c3ccc(C(=O)N4CCC5(CC4)CC(N4CCN(c6cccc(N7CCC(=O)NC7=O)c6)CC4)C5)cc3)CC2)CN1c1ccc(C#N)c(Cl)c1 [Example 35, (S)-2-Chloro-4-(8-(4-(2-(4-(3-(2,4-dioxotetrahydropyrimidin-1(2H)-yl)phenyl)piperazin-1-yl)-7-azaspiro[3.5]nonane-7-carbonyl)phenyl)-3-methyl-2,8-diazaspiro[4.5]decan-2-yl)benzonitrile]
LNCaP cells
  IC50: 31 nM
  Emax: 57%
Androgen receptor (AR)
  DC50: 5.2 nM
  Dmax: 88%

## C[C@H]1CC2(CCN(c3ccc(C(=O)N4CCC5(CC4)CC(N4CCN(c6cccc(NC7CCC(=O)NC7=O)c6)CC4)C5)cc3F)CC2)CN1c1ccc(C#N)c(Cl)c1 (stereo partly drawn) [Example 36, 2-Chloro-4-((3S)-8-(4-(2-(4-(3-((2,6-dioxopiperidin-3-yl)amino)phenyl)piperazin-1-yl)-7-azaspiro[3.5]nonane-7-carbonyl)-2-fluorophenyl)-3-methyl-2,8-diazaspiro[4.5]decan-2-yl)benzonitrile]
LNCaP cells
  IC50: 35 nM
  Emax: 57%
Androgen receptor (AR)
  DC50: 5.3 nM
  Dmax: 97%
